According to patent US5789447A, “Nitric oxide releasing compounds as protective agents in ischemia reperfusion injury” (priority 1995, dated 1998):

Legend:
rat mesenteric venules = test: Venular diameter, RBC velocity and wall shear rate after ischemia reperfusion; assay type: in vivo; conditions: 100 μM in superfusate; for RBC velocity / Venular diameter / Wall Shear Rate: 30 min after reperfusion
Description: (§1) Male Sprague-Dawley rats weighing 200-250 g apiece were maintained on a purified laboratory diet and fasted for 24 hours prior to each experiment. The animals were initially anesthetized with pentobarbital (65 mg/kg body weight) and then a tracheotomy was performed to facilitate breathing during subsequent experimentation. The right carotid artery was cannulated and system arterial pressure was measured with a Statham P23A pressure transducer (Oxnard, Calif.) connected to the carotid artery cannula. Systemic blood pressure and heart rate were continuously recorder with a Grass physiologic recorded (Grass Instruments).
(§2) Rats were placed in a supine position on an adjustable plexiglass microscope stage and the mesentery was prepared for microscopic observation as described previously (Asako et al., Gastroenterology, 103, 146-152 (1992); Kurose et al., Circ. Res., in press (1993)). Briefly, the mesentery was draped over a non-fluorescent coverslip that allowed for observation of a 2 cm^2 segment of tissue. The exposed bowel wall was covered with Saran Wrap (Dow Chemical Co.) and the mesentery was superfused with bicarbonate-buffered saline (pH 7.4, 37° C.) that was bubbled with a mixture of 5% CO2 and […].
(§3) An inverted microscope (TMD-25, Diaphoto, Nikon, Tokyo, Japan) with a 40x objective lens (Fluor, Nikon) was used to observe the mesenteric microcirculation. The mesentery was transilluminated with a 12 V-100 W direct current-stabilized light source. A video camera (VK-C150, Hitachi, Ibaragi, Japan) mounted on the microscope projected the image onto a color monitor (PVM-2030, Sony, Tokyo, Japan) and the images were recorded using a videocassette record (NV8950, Panasonic, Tokyo, Japan). A video time-date generator (WJ810, Panasonic) projected the time, date and stopwatch function onto the monitor.
(§4) Single unbranched venules with diameters ranging between 25 and 35 μm and length greater than 150 μm were selected for study. Venular diameter (DV) was measured either on- or off-line using a video caliper (Microcirculation Research Institute, Texas A&M University, College Station, Tex.). Red blood cell centerline velocity (VRBC) was measured in venules using an optical Dopper velocimeter (Microcirculation Research Institute, Texas A&M University, College Station, Tex.). The velocimeter was calibrated against a rotating glass disk coated with red blood cells. Venular blood flow was calculated from the product of mean red blood cell velocity (Vmean =centerline velocity/1.6; Davis, Microvasc. Res., 34, 223-230 (1987)) and microvascular cross-sectional area, assuming cylindrical geometry. Wall shear rate (γ) was calculated based on the Newtonian definition γ=8(Vmean /D).
After all parameters measured on-line were in a steady state, images from the mesenteric preparation were recorded on videotape for 10 min. […] The mesentery was made ischemic for zero (sham ischemia) or 20 min. After the ischemic period, the ligation was gently removed. In some experiments, either sodium nitroprusside (SNP, 100 μM, Sigma Chemical), spermine-NO (SpNO, 100 μM), SIN-1 (100 μM), spermine (SP, 100 μM, Sigma Chemical), or NG-nitro-L-arginine methyl ester (L-NAME, 100 μM, Sigma Chemical) was added to the superfusate and the same protocol was employed. Spermine-NO and SIN-1, which are NO donors, were obtained from the National Institutes of Health, Bethesda, Md. […]

leukocytes = test: Leukocyte adherence and emigration after ischemia reperfusion (mesenteric venules); assay type: in vivo, rat; conditions: 20 min ischemia, 100 μM; for change in leukocyte adherence: FIG. 4A; for effect on emigrated leukocytes: 30 min reperfusion, in words
Description: as §1, §2, §3, §4
The number of adherent leukocytes was determined off-line during playback of videotape images. A leukocyte was considered to be adherent to venular endothelium if it remained stationary for a period equal to or greater than 30 seconds (Granger et al., Am. J. Physiol., 257, G683-G688 (1989)). Adherent cells were expressed as the number per 100 μm length of venule. The number of emigrated leukocytes was also determined off-line during playback of videotape images. Any interstitial leukocytes present in the mesentery at the onset of the experiment were subtracted from the total number of leukocytes that accumulated during the course of the experiment. Leukocyte emigration was expressed as the number per field of view surrounding the venule. Platelet-leukocyte aggregates, which were visible within postcapillary venules, were quantitated and expressed as the number of aggregates crossing a fixed point within the venule over a 5 min period. Mast cells in the microvascular beds of the rat mesenteries were visualized by using 0.1% toluidine blue. The number of normal and degranulated mast cells was determined and the percentage of degranulated mast cells was calculated.

mesenteric venules = test: Albumin leakage across mesenteric venules after ischemia reperfusion; assay type: in vivo, rat; conditions: 100 μM, FIG. 4C; for effect on ischemia reperfusion induced albumin leakage: in words
Description: as §1, §2, §3
as §4, with “The velocimeter was calibrated against a rotating glass disk coated with red blood cells.” left out
After all parameters measured on-line were in a steady state, images from the mesenteric preparation were recorded on videotape for 10 min. […]

mast cells = test: Degranulation of microvascular mast cells after ischemia reperfusion; assay type: in vivo, rat; conditions: 20 min ischemia, 30 min reperfusion; 100 μM; FIG. 7
Description: as §1, §2
(§5) An inverted microscope (TMD-25, Diaphoto, Nikon, Tokyo, Japan) with a 40x objective lens (Fluor, Nikon) was used to observe the mesenteric microcirculation. […] A video camera (VK-C150, Hitachi, Ibaragi, Japan) mounted on the microscope projected the image onto a color monitor (PVM-2030, Sony, Tokyo, Japan) and the images were recorded using a videocassette record (NV8950, Panasonic, Tokyo, Japan). […]
as §4, with “The velocimeter was calibrated against a rotating glass disk coated with red blood cells.” left out
The number of adherent leukocytes was determined off-line during playback of videotape images. […] Adherent cells were expressed as the number per 100 μm length of venule. The number of emigrated leukocytes was also determined off-line during playback of videotape images. […] Leukocyte emigration was expressed as the number per field of view surrounding the venule. […]

[1] = test system: platelet-leukocyte aggregates; test: Platelet-leukocyte aggregates after ischemia reperfusion; assay type: in vivo, rat; conditions: 20 min ischemia, 30 min reperfusion; 100 μM; FIG. 6
Description: as §1, with “Instruments). […]” for “Instruments).”
as §5
Single unbranched venules with diameters ranging between 25 and 35 μm and length greater than 150 μm were selected for study. Venular diameter (DV) was measured either on- or off-line using a video caliper (Microcirculation Research Institute, Texas A&M University, College Station, Tex.). […] Wall shear rate (γ) was calculated based on the Newtonian definition γ=8(Vmean /D). […]

intestinal mucosa = test: Intestinal blood to lumen 51Cr-EDTA clearance (mucosal permeability) in cat small intestine transplant; assay type: in vivo, cats
small intestine = test: Water absorption in cat small intestine transplant; assay type: in vivo, cats; conditions: at 90 and 120 min; 0.5 mmol; FIG. 10
microvasculature = test: Capillary pressure and vascular resistance in cat small intestine transplant; assay type: in vivo, cats; conditions: FIG. 13
[2] = test system: Chinese hamster V79 lung fibroblasts; test: V79 clonogenic survival, hypoxanthine/xanthine oxidase (HX/XO) cytotoxicity; conditions: decomposition products of DEA/NO, 1 mM
Description: Chinese hamster V79 lung fibroblasts were cultured in F12 medium supplemented with 10% fetal calf serum and antibiotics. Cell survival was assessed by clonogenic assay with 85-95% plating efficiency. Stock cultures of exponentially growing cells were trypsinized, rinsed, and plated (7×10^5 cells/dish) into a number of 100 cm^2 petri dishes and incubated 16 hr at 37° C. prior to experimental protocols.
It has been shown that exposure of V79 cells to hydrogen peroxide results in dose-dependent cytotoxicity (Mitchell et al., supra).
HX and XO were purchased from Boehringer Co. (Indianapolis, Ind.). Nitrite, diethylamine, sulfinamide, diethylenetriaminepentaacetic acid (DETAPAC) and N-(1-naphthyl)ethylenediaminedihydrogenchloride (NEDD) were purchased from Aldrich (Milwaukee, Wis.). Cytosine-β-D-arabinofuranoside and ferricytochrome c were purchased from Sigma (St. Louis, Mo.). DEA/NO and SPER/NO were synthesized as previously described (Maragos et al., (1991), supra).
Exponentially growing cultures of Chinese hamster V79 fibroblasts were exposed to either HX/XO (final concentration of HX was 0.5 mM; 0.08 units/ml XO were used) for various amounts of time (FIG. 1A) or to various concentrations of hydrogen peroxide for one hour (FIG. 1B). […] Additionally, 1 mM DEA/NO was added to medium in the absence of cells, incubated at 37° C. for 1 hr or 16 hrs, and then added just prior to the addition of hydrogen peroxide to evaluate the effects of DEA/NO which had released NO. After treatment, cell monolayers were rinsed twice with phosphate-buffered saline (PBS), trypsinized, counted and plated in triplicate for macroscopic colony formation. Each dose determination was plated in triplicate and experiments were repeated a minimum of two times. Plates were incubated for 7 days, after which colonies were fixed with methanol/acetic acid (3:1), stained with crystal violet, and counted. Colonies containing more than 50 cells were scored.

[3] = test system: Chinese hamster V79 lung fibroblasts; test: V79 clonogenic survival, hydrogen peroxide cytotoxicity; assay type: cell-based; conditions: 1 mM; for effect on hydrogen peroxide cytotoxicity: FIG. 2B; for protection from hydrogen peroxide cytotoxicity: decomposition products of DEA/NO, FIG. 1B
Excerpt: Colonies containing more than 50 cells were scored.

XO [4] = target: T1, XO (Bos taurus, UniProt P80457); test: XO activity by superoxide-induced reduction of ferricytochrome c; assay type: biochemical; conditions: 1 mM, preincubated with HX/XO
T1 sequence (P80457 whole entry): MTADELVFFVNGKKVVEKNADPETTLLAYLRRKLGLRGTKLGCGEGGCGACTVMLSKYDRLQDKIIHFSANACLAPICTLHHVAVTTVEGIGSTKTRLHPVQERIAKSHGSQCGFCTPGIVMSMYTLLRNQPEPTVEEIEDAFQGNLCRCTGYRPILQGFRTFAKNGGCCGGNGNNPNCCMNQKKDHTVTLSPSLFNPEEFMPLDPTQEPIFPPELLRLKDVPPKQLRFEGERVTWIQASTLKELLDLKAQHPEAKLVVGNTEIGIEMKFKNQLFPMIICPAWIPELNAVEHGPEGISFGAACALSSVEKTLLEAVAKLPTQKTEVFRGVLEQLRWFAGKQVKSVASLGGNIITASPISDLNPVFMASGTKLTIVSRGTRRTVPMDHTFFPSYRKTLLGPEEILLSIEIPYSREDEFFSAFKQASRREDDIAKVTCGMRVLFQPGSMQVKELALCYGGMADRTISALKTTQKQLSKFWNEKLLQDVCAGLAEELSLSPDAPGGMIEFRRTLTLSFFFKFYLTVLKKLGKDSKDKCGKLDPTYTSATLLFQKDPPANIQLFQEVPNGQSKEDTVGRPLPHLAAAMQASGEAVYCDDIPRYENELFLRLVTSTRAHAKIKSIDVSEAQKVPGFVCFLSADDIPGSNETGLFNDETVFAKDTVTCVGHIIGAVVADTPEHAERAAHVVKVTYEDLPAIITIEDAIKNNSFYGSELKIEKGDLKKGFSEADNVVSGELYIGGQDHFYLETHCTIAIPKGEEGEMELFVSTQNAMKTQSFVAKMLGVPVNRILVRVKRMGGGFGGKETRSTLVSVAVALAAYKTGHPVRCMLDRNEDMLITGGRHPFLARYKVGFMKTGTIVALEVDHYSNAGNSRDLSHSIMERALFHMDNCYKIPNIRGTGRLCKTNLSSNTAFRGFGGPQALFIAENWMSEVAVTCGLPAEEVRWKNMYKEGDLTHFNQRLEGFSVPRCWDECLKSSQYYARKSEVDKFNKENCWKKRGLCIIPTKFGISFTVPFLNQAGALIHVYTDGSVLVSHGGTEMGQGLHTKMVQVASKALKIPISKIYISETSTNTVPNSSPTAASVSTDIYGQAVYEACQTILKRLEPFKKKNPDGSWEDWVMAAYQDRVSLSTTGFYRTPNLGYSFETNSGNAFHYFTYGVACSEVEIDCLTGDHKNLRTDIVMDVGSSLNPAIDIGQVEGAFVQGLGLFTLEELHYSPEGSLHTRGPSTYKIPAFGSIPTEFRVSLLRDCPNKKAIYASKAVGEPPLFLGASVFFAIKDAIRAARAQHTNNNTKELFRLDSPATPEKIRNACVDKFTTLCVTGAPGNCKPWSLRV
Description: (§6) The activity of XO was monitored in the absence and presence of 1 mM DEA/NO by two different assays. Superoxide-induced reduction of ferricytochrome c to ferrocytochrome c was monitored spectrophotometrically at 550 nm (Fridovich, Handbook of Method for Oxygen Radical Research, pages 213-215 (1985)). The reaction was carried out in a 1 ml volume in aerated phosphate buffer (pH 7.8, 50 mM) containing 50 μM DETAPAC. HX was maintained at 2.5 mM and ferricytochrome c at 20 μM. The reactions were initiated with the addition of XO (final concentration of 0.2 units/ml). The activity of XO in the absence and presence of 1 mM DEA/NO was directly monitored by measuring the production of uric acid spectrophotometrically at 305 nm for 10 min under the same conditions but in the absence of ferricytochrome c. All enzymatic assays and chemical reactions were done at 37° C.

XO [5] = target: T1, XO; test: XO activity by uric acid production at 305 nm; assay type: biochemical; conditions: 1 mM, preincubated with HX/XO
Description: as §6

[6] = test system: Chinese hamster V79 lung fibroblasts; conditions: Mitchell et al.; cited from earlier work

COC(=O)[C@@H](N)CCCNC(=N)N[N+](=O)[O-] [L-NAME, NG-nitro-L-arginine methyl ester]
RBC velocity (rat mesenteric venules): 1.84 ± 0.09 mm/sec | Venular diameter (rat mesenteric venules): 29.2 ± 1.5 μm | Wall Shear Rate (rat mesenteric venules): 316 ± 10 L/s | change in leukocyte adherence (leukocytes; 10 and 30 min reperfusion): no significant changes | effect on emigrated leukocytes (leukocytes; FIG. 4B): no effect | effect on ischemia reperfusion induced albumin leakage (mesenteric venules): no effect | degranulation of microvascular mast cells (mast cells): had no effect

[NH-]c1c[n+](N2CCOCC2)no1 [SIN-1]
reversal of decrease in RBC velocity after reperfusion (rat mesenteric venules; in words): reversed the decreases | reversal of decrease in wall shear rate after reperfusion (rat mesenteric venules; in words): reversed the decreases | RBC velocity (rat mesenteric venules): 2.64 ± 0.23 mm/sec | Venular diameter (rat mesenteric venules): 29.0 ± 1.1 μm | Wall Shear Rate (rat mesenteric venules): 457 ± 38 L/s | reduction of number of emigrated leukocytes (leukocytes; 10 and 30 min reperfusion, FIG. 4B): 68-75% | attenuation of albumin leakage (mesenteric venules; 10 min and 30 min after reperfusion): 60-71% | platelet-leukocyte aggregate formation [1]: reduced | degranulation of microvascular mast cells (mast cells): significantly inhibited | mucosal permeability (51Cr-EDTA clearance) (intestinal mucosa; 6-hr hypothermic ischemia, 120 min reperfusion, FIG. 9): decreased | 51Cr-EDTA clearance (intestinal mucosa; at 60 and 90 min, 0.5 mmol luminal perfusate): statistically significant decrease | water absorption (small intestine): significantly increased | capillary pressure (microvasculature): No significant changes

NCCCNCCCCNCCCN [SP, spermine]
RBC velocity (rat mesenteric venules): 2.32 ± 0.19 mm/sec | Venular diameter (rat mesenteric venules): 29.8 ± 1.4 μm | Wall Shear Rate (rat mesenteric venules): 391 ± 28 L/s | change in leukocyte adherence (leukocytes; 10 and 30 min reperfusion): no significant changes | effect on emigrated leukocytes (leukocytes; FIG. 4B): no effect | effect on ischemia reperfusion induced albumin leakage (mesenteric venules): no effect | degranulation of microvascular mast cells (mast cells): had no effect

CCNCC [diethylamine]
protection from HX/XO-induced cytotoxicity [2]: did not protect | effect on hydrogen peroxide cytotoxicity [3]: had no effect on hydrogen peroxide cytotoxicity | protection from hydrogen peroxide cytotoxicity [3]: did not protect | inhibition of XO activity, production of superoxide (cytochrome c reduction) (XO [4]): did not inhibit the activity of XO | inhibition of XO activity, uric acid production (XO [5]): did not inhibit the activity of XO

O=NO [nitrite]
protection from HX/XO-induced cytotoxicity [2]: did not protect | effect on hydrogen peroxide cytotoxicity [3]: potentiated hydrogen peroxide cytotoxicity | protection from hydrogen peroxide cytotoxicity [3]: did not protect | inhibition of XO activity, production of superoxide (cytochrome c reduction) (XO [4]): did not inhibit the activity of XO | inhibition of XO activity, uric acid production (XO [5]): did not inhibit the activity of XO

superoxide dismutase
HX/XO induced cytotoxicity with added enzyme [6]: not treated

B1: catalase: catalase (protein, UniProt P04040 2-527, looked up)
Catalase: ADSRDPASDQMQHWKEQRAAQKADVLTTGAGNPVGDKLNVITVGPRGPLLVQDVVFTDEMAHFDRERIPERVVHAKGAGAFGYFEVTHDITKYSKAKVFEHIGKKTPIAVRFSTVAGESGSADTVRDPRGFAVKFYTEDGNWDLVGNNTPIFFIRDPILFPSFIHSQKRNPQTHLKDPDMVWDFWSLRPESLHQVSFLFSDRGIPDGHRHMNGYGSHTFKLVNANGEAVYCKFHYKTDQGIKNLSVEDAARLSQEDPDYGIRDLFNAIATGKYPSWTFYIQVMTFNQAETFPFNPFDLTKVWPHKDYPLIPVGKLVLNRNPVNYFAEVEQIAFDPSNMPPGIEASPDKMLQGRLFAYPDTHRHRLGPNYLHIPVNCPYRARVANYQRDGPMCMQDNQGGAPNYYPNSFGAPEQQPSALEHSIQYSGEVRRFNTANDDNVTQVRAFYVNVLNEEQRKRLCENIAGHLKDAQIFIQKKAVKNFTEVHPDYGSHIQALLDKYNAEKPKNAIHTFVQSGSHLAAREKANL
HX/XO induced cytotoxicity with added enzyme [6]: treated the cytotoxicity
